According to article PMC11167047 (Cell Death Discovery, 2024):

How the values were obtained:
Experiment in all cases: kinome screen (33PanQinase)
Format in all cases: biochemical
[1] = target: T1, CAMKK1 (Homo sapiens, UniProt Q8N5S9)
T1 construct: purchased Reaction Biology Europe GmbH (formerly ProQinase)
Protocol: (§1) The Kinome Screening was performed by Reaction Biology Europe GmbH (http://reactionbiology.com; Freiburg i. Br., Germany).

[2] = target: T2, CDK19/CycC (Homo sapiens, UniProt Q9BWU1)
T2 construct: purchased Reaction Biology Europe GmbH (formerly ProQinase)
T2 sequence (Q9BWU1 whole entry): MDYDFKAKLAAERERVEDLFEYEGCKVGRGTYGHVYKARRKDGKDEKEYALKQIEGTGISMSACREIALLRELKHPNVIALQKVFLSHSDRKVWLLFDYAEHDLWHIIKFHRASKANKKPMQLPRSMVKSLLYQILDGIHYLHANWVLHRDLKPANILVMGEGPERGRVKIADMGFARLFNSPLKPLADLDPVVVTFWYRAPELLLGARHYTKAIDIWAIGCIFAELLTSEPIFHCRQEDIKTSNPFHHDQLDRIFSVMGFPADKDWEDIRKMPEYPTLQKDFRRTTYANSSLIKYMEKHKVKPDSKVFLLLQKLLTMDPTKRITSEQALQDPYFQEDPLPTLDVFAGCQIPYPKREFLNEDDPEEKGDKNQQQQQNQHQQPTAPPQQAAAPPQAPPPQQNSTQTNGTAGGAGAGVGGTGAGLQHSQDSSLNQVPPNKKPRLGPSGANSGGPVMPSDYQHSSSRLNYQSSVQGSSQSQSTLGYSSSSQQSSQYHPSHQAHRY
T2 sequence (P24863 whole entry partner): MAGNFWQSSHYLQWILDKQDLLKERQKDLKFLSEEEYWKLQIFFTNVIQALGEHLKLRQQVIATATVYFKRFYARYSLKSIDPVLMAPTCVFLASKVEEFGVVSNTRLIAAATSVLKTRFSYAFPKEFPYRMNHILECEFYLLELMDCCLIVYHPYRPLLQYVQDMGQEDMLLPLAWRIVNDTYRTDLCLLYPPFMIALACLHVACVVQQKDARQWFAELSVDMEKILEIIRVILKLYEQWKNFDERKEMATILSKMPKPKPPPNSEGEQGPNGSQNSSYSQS
Protocol: as §1

[3] = target: T3, CK2α1 (Homo sapiens, UniProt P68400)
T3 construct: purchased Reaction Biology Europe GmbH (formerly ProQinase)
T3 sequence (P68400 whole entry): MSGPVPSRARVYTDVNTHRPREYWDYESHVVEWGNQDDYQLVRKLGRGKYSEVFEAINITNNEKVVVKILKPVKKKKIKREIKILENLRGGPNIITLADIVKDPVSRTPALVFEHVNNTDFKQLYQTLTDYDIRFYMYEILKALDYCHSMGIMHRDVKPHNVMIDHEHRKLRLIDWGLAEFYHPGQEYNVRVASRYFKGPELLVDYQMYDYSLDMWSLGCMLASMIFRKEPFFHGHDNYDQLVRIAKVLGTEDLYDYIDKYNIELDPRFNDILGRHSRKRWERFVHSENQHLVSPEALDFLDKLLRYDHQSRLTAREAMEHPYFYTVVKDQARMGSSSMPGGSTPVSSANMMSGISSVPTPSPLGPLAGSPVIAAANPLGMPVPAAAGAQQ
Protocol: as §1

[4] = target: T4, EPHA1 (Homo sapiens, UniProt P21709)
T4 construct: purchased Reaction Biology Europe GmbH (formerly ProQinase)
T4 sequence (P21709 26-976): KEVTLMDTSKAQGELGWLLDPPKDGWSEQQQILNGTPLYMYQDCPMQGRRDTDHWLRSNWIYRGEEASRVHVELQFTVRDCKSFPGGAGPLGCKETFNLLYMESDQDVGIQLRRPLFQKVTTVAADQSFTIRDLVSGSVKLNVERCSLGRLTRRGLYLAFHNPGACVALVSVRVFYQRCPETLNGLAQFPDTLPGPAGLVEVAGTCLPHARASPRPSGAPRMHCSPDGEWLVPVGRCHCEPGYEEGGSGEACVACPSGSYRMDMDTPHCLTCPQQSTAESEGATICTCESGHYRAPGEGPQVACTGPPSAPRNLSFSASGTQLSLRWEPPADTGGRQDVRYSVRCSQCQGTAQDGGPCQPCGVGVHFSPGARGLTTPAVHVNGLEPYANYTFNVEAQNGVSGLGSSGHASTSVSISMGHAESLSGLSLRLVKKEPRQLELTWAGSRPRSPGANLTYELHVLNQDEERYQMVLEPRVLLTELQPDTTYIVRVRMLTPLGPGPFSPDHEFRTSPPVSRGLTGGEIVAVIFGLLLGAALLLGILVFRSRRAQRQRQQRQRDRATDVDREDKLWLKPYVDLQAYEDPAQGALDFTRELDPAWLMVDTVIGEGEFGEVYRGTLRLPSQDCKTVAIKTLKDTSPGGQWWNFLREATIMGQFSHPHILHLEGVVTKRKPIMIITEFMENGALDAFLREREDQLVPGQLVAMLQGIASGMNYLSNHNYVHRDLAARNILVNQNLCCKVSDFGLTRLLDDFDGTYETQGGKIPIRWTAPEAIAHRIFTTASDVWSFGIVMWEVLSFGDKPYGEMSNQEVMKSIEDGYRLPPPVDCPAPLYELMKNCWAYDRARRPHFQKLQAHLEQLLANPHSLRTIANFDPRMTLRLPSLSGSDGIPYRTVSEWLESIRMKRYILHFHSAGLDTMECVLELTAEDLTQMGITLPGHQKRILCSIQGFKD
Protocol: as §1

[5] = target: T5, RIPK2 (Homo sapiens, UniProt O43353)
T5 construct: purchased Reaction Biology Europe GmbH (formerly ProQinase)
T5 sequence (O43353 whole entry): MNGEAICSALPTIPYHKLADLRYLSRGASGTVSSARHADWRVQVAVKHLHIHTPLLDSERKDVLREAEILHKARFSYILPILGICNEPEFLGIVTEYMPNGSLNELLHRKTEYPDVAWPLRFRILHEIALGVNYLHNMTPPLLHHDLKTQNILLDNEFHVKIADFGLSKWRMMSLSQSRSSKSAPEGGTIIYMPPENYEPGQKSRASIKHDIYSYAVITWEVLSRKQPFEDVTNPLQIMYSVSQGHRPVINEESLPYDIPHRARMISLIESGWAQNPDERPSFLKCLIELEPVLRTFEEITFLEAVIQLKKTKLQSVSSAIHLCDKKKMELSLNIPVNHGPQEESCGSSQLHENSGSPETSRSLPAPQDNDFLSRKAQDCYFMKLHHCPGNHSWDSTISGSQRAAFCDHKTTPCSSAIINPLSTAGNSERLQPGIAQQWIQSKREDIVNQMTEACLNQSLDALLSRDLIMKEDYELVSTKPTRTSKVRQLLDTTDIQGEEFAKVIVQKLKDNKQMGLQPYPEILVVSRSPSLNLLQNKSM
Protocol: as §1

[6] = target: T6, TSSK1 (Homo sapiens, UniProt Q9BXA7)
T6 construct: purchased Reaction Biology Europe GmbH (formerly ProQinase)
T6 sequence (Q9BXA7 1-367): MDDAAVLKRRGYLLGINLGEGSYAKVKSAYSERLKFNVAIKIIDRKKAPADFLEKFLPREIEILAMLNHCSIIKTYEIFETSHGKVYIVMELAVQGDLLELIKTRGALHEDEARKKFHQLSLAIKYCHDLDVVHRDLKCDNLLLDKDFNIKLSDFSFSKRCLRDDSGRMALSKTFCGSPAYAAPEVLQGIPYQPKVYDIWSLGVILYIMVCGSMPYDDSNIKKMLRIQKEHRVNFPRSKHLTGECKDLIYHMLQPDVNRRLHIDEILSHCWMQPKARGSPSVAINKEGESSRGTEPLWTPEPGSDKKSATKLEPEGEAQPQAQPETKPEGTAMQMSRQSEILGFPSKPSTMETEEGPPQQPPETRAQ
Protocol: as §1

[7] = target: T7, TTK (Homo sapiens, UniProt P33981)
T7 construct: purchased Reaction Biology Europe GmbH (formerly ProQinase)
T7 sequence (P33981 1-857): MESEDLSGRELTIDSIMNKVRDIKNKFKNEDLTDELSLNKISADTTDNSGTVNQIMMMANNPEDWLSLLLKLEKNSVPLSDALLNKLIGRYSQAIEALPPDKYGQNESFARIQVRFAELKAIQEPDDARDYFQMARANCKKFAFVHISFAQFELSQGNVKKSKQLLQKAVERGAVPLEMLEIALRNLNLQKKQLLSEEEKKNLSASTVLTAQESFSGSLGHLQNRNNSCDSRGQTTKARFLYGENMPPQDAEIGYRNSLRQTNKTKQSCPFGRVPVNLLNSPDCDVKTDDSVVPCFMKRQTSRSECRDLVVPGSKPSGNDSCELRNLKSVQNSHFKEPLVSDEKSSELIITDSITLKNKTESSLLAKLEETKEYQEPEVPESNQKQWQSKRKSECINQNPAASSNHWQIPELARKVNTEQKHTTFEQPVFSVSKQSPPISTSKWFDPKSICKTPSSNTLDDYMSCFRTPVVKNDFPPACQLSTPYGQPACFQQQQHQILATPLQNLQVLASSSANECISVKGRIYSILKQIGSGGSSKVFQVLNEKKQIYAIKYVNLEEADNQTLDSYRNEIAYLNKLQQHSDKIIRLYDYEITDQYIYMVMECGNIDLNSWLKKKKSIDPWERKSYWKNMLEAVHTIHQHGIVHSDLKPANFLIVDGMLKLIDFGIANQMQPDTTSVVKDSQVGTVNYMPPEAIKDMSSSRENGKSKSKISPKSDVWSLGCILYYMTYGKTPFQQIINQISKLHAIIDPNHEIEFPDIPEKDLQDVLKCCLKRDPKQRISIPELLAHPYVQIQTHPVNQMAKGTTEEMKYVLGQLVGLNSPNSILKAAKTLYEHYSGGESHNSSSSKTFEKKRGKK
Protocol: as §1

T1 sequence (Q8N5S9 whole entry): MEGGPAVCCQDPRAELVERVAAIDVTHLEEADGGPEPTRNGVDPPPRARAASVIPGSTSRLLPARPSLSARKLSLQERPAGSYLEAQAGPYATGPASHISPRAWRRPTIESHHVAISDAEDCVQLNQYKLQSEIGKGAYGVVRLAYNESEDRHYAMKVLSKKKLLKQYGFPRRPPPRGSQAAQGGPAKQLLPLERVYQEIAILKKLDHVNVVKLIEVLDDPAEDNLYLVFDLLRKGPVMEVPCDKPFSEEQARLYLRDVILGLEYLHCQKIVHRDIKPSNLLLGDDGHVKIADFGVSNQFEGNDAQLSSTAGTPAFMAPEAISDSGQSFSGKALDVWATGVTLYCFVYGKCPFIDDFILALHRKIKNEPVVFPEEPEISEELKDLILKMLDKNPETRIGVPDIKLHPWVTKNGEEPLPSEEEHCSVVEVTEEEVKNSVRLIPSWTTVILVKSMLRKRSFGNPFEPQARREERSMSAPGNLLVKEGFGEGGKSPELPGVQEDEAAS

SMILES	residual kinase activity ([1]; 0.3 µM)	residual kinase activity ([2]; 0.3 µM)	residual kinase activity ([3]; 0.3 µM)	residual kinase activity ([4]; 0.3 µM)	residual kinase activity ([5]; 0.3 µM)	residual kinase activity ([6]; 0.3 µM)	residual kinase activity ([7]; 0.3 µM)	also measured
c1ccc(CNc2cc(-c3c[nH]c4ncccc34)ccn2)cc1 [meriolin 36]	51 % of control	3 % of control	99 % of control	127 % of control	61 % of control	50 % of control	55 % of control	residual kinase activity ([1]; 3 µM): 18 % of control; residual kinase activity ([2]; 3 µM): 0 % of control; residual kinase activity ([3]; 3 µM): 53 % of control; residual kinase activity ([4]; 3 µM): 126 % of control; residual kinase activity ([5]; 3 µM): 33 % of control; residual kinase activity ([6]; 3 µM): 15 % of control; residual kinase activity ([7]; 3 µM): 17 % of control
COc1ccnc2[nH]cc(-c3cc(N)nc(N)c3)c12 [meriolin 16]	95 % of control	2 % of control	104 % of control	116 % of control	78 % of control	83 % of control	8 % of control	residual kinase activity ([1]; 0.03 µM): 97 % of control; residual kinase activity ([2]; 0.03 µM): 6 % of control; residual kinase activity ([3]; 0.03 µM): 106 % of control; residual kinase activity ([4]; 0.03 µM): 128 % of control; residual kinase activity ([5]; 0.03 µM): 95 % of control; residual kinase activity ([6]; 0.03 µM): 109 % of control; residual kinase activity ([7]; 0.03 µM): 49 % of control
